The target of data set [1] is T1, Dihydropeptidase-1 (DHP-1) (Sus scrofa, UniProt P22412).
T1 sequence (P22412 17-384): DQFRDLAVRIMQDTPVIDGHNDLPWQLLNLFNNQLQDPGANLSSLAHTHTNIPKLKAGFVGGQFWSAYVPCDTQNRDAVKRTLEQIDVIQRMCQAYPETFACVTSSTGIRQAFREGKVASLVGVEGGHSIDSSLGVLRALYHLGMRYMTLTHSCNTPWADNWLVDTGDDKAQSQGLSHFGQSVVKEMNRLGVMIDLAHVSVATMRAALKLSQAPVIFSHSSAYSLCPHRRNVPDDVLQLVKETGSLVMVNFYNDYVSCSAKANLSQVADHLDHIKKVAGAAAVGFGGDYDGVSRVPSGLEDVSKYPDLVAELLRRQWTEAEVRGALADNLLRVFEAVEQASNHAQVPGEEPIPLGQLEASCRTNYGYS
The data set is described as follows: Sensitivity Assay Against Dihydropeptidase-1 (DHP-1). The following applies: pig, DHP-1 enzyme extracted from hog kidney.
Procedure: (§3) The rate of degradation of the inventive compounds by the action of DHP-1 enzyme extracted from hog kidney was determined as follow.
(§4) 0.2 unit of the enzyme was allowed to react with the above solution at 30° C., and the absorbance at 299 nm of the remaining medicament was measured to determine the degradation rate. The absorbance was measured at 0, 0.5, 1, 2 and 4 hour points, and T1/2, the time when the concentration of the medicament become the half, was obtained by regression analysis.

The test system of data set [2] is Enterobacter cloacae 1321 E. The data set is described as follows: Measurement of Minimum Inhibitory Concentration (MIC). It counts as cell-based. The method, then:
(§1) The antibacterial activities of the compounds of the present invention prepared in the above Examples against Gram-positive and Gram-negative bacteria, MRSA and QRS were tested as follows.
(§2) Respective bacterial strains were inoculated into 3 ml of Fleisch extract broth (beef extract 1%, peptone 1%, NaCl 0.3%, Na2HPO4.12H2O 0.2%, pH 7.4-7.5. 10% horse serum was supplemented for Streptococcus pyogenes and S. facium) and cultured on a shaking incubator at 37° C. for 18 hours. About 10^4 CFU/spot of the cultured bacterial strains were inoculated onto Müller-Hinton agar plates containing serial double dilutions (final concentration of 0.002 to 100 μg/ml) of a test compound employing an automatic inoculator (Dynatech, USA), and incubated at 37° C. for 18 hours. When the incubation was completed, the minimum inhibitory concentration was determined. Meropenem (Yuhan corporation, Korea) and vancomycin (Cj Inco., Korea) were used as standard antibiotics, respectively.

The test system of data set [3] is Enterobacter cloacae P 99. The data set is described as above. The class given is cell-based. The method, then:
as §1, §2

In a further data set the test system is Escherichia coli 078. The data set is described as above. The class given is cell-based. The method, then:
as §1, §2

For another data set, the system named is Escherichia coli 1507 E. The description is as above. The class given is cell-based. The method, then:
as §1, §2

The subject of a further data set is Escherichia coli DC 0. The description is as above. The class given is cell-based. The method, then: as §1, §2
A further data set deals with Escherichia coli DC 2. The description is as above. The class given is cell-based. The protocol: as §1, §2
The test system of another data set is Escherichia coli TEM. The description is as above. The class given is cell-based. The following applies: Escherichia coli TEM. The method, then:
as §1, §2

The subject of data set [4] is Klebsiella aerogenes 1522 E. The data set is described as above. It counts as cell-based. The method, then:
as §1, §2

The test system of data set [5] is Klebsiella oxytoca 1082 E. The data set is described as above. The class given is cell-based. The protocol:
as §1, §2

The subject of data set [6] is Salmonella typhimurium 179. The description is as above. The following applies: Salmonella typhimurium 179. It counts as cell-based. The method, then: as §1, §2
The test system of data set [7] is Staphylococcus aureus 285. The data set is described as above. The class given is cell-based. The protocol:
as §1, §2

Data set [8] deals with Staphylococcus aureus 503. The data set is described as above. It counts as cell-based. The method, then: as §1, §2
Data set [9] concerns Staphylococcus faecium MD 8b. The data set is described as above. The class given is cell-based. The following applies: Staphylococcus faecium MD 8b. The method, then: as §1, §2
In data set [10] the test system is Staphylococcus pyogenes 308A. Described as above. It counts as cell-based. The following applies: Staphylococcus pyogenes 308A. The protocol: as §1, §2
For data set [11], the system named is Staphylococcus pyogenes 77A. Described as above. It counts as cell-based. The following applies: Staphylococcus pyogenes 77A. The method, then:
as §1, §2

Data set [12] deals with Staphylococcus aureus 121E. Nature of the data set: Measurement of Minimum Inhibitory Concentration (MIC), MRSA. The note with it: Staphylococcus aureus 121E. It counts as cell-based. The method, then: as §1, §2
Data set [13] has as its system Staphylococcus aureus 208E. The description is as above. The following applies: Staphylococcus aureus 208E. It counts as cell-based. The method, then: as §1, §2
The test system of data set [14] is Staphylococcus aureus 256E. The data set is described as above. It counts as cell-based. The following applies: Staphylococcus aureus 256E. The protocol: as §1, §2
Data set [15] has as its system Staphylococcus aureus 690E. The data set is described as above. The class given is cell-based. The following applies: Staphylococcus aureus 690E. The method, then:
as §1, §2

The subject of data set [16] is Staphylococcus aureus 692E. The description is as above. The note with it: Staphylococcus aureus 692E. The class given is cell-based. The protocol:
as §1, §2

Data set [17] has as its system Staphylococcus aureus 693E. The description is as above. It counts as cell-based. The note with it: Staphylococcus aureus 693E. The protocol: as §1, §2
For data set [18], the system named is Staphylococcus aureus 694E. Described as above. It counts as cell-based. The following applies: Staphylococcus aureus 694E. The method, then:
as §1, §2

In data set [19] the test system is Staphylococcus aureus 695E. Described as above. The class given is cell-based. The note with it: Staphylococcus aureus 695E. The protocol: as §1, §2
Data set [20] has as its system Staphylococcus aureus 697E. The data set is described as above. The note with it: Staphylococcus aureus 697E. The class given is cell-based. The protocol: as §1, §2
The test system of data set [21] is Staphylococcus aureus 88E. The data set is described as above. The class given is cell-based. The following applies: Staphylococcus aureus 88E. The method, then: as §1, §2
Data set [22] concerns Staphylococcus aureus 179. Nature of the data set: Measurement of Minimum Inhibitory Concentration (MIC), QRS. The class given is cell-based. The following applies: QRS, Staphylococcus aureus 179. The protocol:
as §1, §2

The subject of data set [23] is Staphylococcus aureus 241. The description is as above. The following applies: QRS, Staphylococcus aureus 241. It counts as cell-based. The method, then: as §1, §2
Data set [24] concerns Staphylococcus aureus 293. The data set is described as above. The note with it: QRS, Staphylococcus aureus 293. It counts as cell-based. The method, then:
as §1, §2

In data set [25] the test system is Staphylococcus epidermidis 178. Described as above. The class given is cell-based. The following applies: QRS, Staphylococcus epidermidis 178. The method, then:
as §1, §2

The subject of data set [26] is Staphylococcus epidermidis 291. The data set is described as above. It counts as cell-based. The following applies: QRS, Staphylococcus epidermidis 291. The protocol: as §1, §2
A short description of data set [27]: Test of Pharmacokinetics in Animals (mice). It counts as in vivo. The following applies: mouse, in vivo, 40 mg/kg. The protocol: The pharmacokinetics of the carbapenem derivatives of the present invention was determined using mice. […] Standard antibiotic samples were prepared by serial two-fold dilution with control blood. […] PK (pharmacokinetic) change indicators (AUC, Tmax, Cmax and T1/2) of the test compound concentration remaining in the mouse blood over time were assayed over a set period.

For data set [28], the target named is T1, Dihydropeptidase-1 (DHP-1).
Procedure: as §3, §4

Here are results for 2 compounds from patent US7662810B2, “2-arylmethylazetidine carbapenem derivatives and preparation thereof” (Korea Research Institute of Chemical Technology, priority 2004, dated 2010).

In general, half-life refers to how long it takes for the measured level to halve. As a reminder, the MIC is the lowest concentration that inhibits growth of the organism. A high value points to a less susceptible organism. A word on the Cmax: it is the maximum level reached in the sampled fluid or tissue. For orientation: Tmax means the time from dosing to the highest level.

`C[C@@H](O)[C@H]1C(=O)N2C(C(=O)O)=C(SCCN=CN)C[C@H]12` [Imipenem, imipenem] showed a half-life at 500 μg/ml in data set [1] of 143 min.

As for `C[C@@H](O)[C@H]1C(=O)N2C(C(=O)[O-])=C(SC3CN(Cc4ccccc4)C3)[C@H](C)[C@H]12.[K+]` [Exam. 13, Potassium(1R,5S,6S)-2-(1-benzyl-azetidine-3-yl-thio)-6-[(1R)-1-hydroxylethyl]-1-methylcarbapen-2-em-3-carboxylate], the MIC in [2] amounted to 0.049 µg/mL; in data set [3] it was 0.098 µg/mL; against Escherichia coli 078, 0.049 µg/mL; against Escherichia coli 1507 E, 0.049 µg/mL; in the data set with Escherichia coli DC 0 it was 0.098 µg/mL; in the data set with Escherichia coli DC 2 it was 0.025 µg/mL. The MIC against Escherichia coli TEM stood at 0.049 µg/mL; in data set [4], 0.098 µg/mL; in [5] it was 0.049 µg/mL; in data set [6], 0.049 µg/mL; in data set [7], 0.025 µg/mL; in data set [8], 0.013 µg/mL. The minimal inhibitory concentration (MIC) in data set [9] came out at 1.563 µg/mL; in [10] it was 0.002 µg/mL; in data set [11], 0.002 µg/mL; in data set [12], 0.025 µg/mL; in data set [13], 0.049 µg/mL; in [14], 0.013 µg/mL. The MIC in data set [15] was 0.391 µg/mL; in [16], 0.025 µg/mL; in [17] it was 3.125 µg/mL; in data set [18], 1.563 µg/mL; in data set [19] it was 0.391 µg/mL; in data set [20], 0.025 µg/mL. The MIC came out at 0.025 µg/mL in data set [21]; 0.049 µg/mL in [22]; 0.049 µg/mL in data set [23]; 0.098 µg/mL in data set [24]; 0.391 µg/mL in [25]; 0.391 µg/mL in data set [26]. Further, in data set [27], the “AUC, times higher than meropenem” value is on record as 10 to 12 times. Also, the “increase in T1/2 than meropenem” value in data set [27] was “more than 2 times”. Further, the “AUC (area under blood-medicament concentration curve till 24 hours from administration)” value came to 1730 ng·h/mL in data set [27] (po) and 94760 ng·h/mL in data set [27] (sc). Also, the Cmax in [27] (po) is 1060 ng/mL; in data set [27] (sc) it was 86830 ng/mL. The “T1/2 (half time of blood-medicament concentration)” value in [27] (po) was determined as 48.6 min; in data set [27] (sc) it was 55.2 min. The figures for the Tmax in data set [27] (po) and in data set [27] (sc) were 29.4 min and 13.2 min, respectively. Also, in [27] (po), the “absorption through the oral route” value is reported as “absorbed through the oral route to significant extents”. Moreover, in data set [28], the “T1/2 (time when the concentration of the medicament become the half)” value worked out at 19.28.
